Results taken from ChEMBL document CHEMBL1201862, “PubChem BioAssay data set” (2004).
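Assay format: 96-well plates, 48-hour exposure. GI50 = concentration required for 50% inhibition of growth.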 Activity calls are given as the source filed them. No stated cut-off is given here; in the data, active = GI50 up to about 1.1 µM and inactive = higher.

Columns and labels:
Assay in all cases: NCI anticancer screen, dose series, 48 h
[1] = tested on: SK-MEL-5
[2] = tested on: Hs-578T
[3] = tested on: SW-620
[4] = tested on: CAKI-1
[5] = tested on: HCC 2998
[6] = tested on: HT-29
[7] = tested on: MDA-MB-231
[8] = tested on: UACC-257
[9] = tested on: OVCAR-3
[10] = tested on: SK-MEL-2
[11] = tested on: 786-0
[12] = tested on: DU-145
[13] = tested on: SNB-75
[14] = tested on: MOLT-4
[15] = tested on: UO-31
[16] = tested on: NCI/ADR-RES
[17] = tested on: SK-OV-3
[18] = tested on: NCI-H226
[19] = tested on: RXF 393
[20] = tested on: UACC-62
[21] = tested on: MDA-MB-435
[22] = tested on: RPMI-8226
[23] = tested on: TK-10
[24] = tested on: HOP-62
[25] = tested on: T47D
[26] = tested on: A498
[27] = tested on: HL-60
[28] = tested on: EKVX
[29] = tested on: CCRF-CEM
[30] = tested on: SNB-19
[31] = tested on: OVCAR-4
[32] = tested on: SR
[33] = tested on: SK-MEL-28
[34] = tested on: SF-539
[35] = tested on: MDA-N
[36] = tested on: COLO 205
[37] = tested on: MCF7
[38] = tested on: OVCAR-8
[39] = tested on: PC-3
[40] = tested on: M14
[41] = tested on: Malme-3M
[42] = tested on: SN12C
[43] = tested on: HCT-116
[44] = tested on: NCI-H23
[45] = tested on: SF-295
[46] = tested on: OVCAR-5
[47] = tested on: HCT-15
[48] = tested on: ACHN
[49] = tested on: SF-268
[50] = tested on: A549
[51] = tested on: K562
[52] = tested on: KM12
[53] = tested on: IGROV-1
[54] = tested on: NCI-H522
[55] = tested on: HOP-92
[56] = tested on: NCI-H460
[57] = tested on: U-251
[58] = tested on: LOX IMVI

## CN(C)/C=N\c1c(Br)cc(Br)c2nonc12
[1]
  GI50: > 100 µM (inactive)
[2]
  GI50: 66.4 µM (inactive)
[3]
  GI50: > 100 µM (inactive)
[4]
  GI50: > 100 µM (inactive)
[5]
  GI50: > 100 µM (inactive)
[6]
  GI50: > 100 µM (inactive)
[7]
  GI50: > 100 µM (inactive)
[8]
  GI50: > 100 µM (inactive)
[9]
  GI50: > 100 µM (inactive)
[10]
  GI50: > 100 µM (inactive)
[11]
  GI50: > 100 µM (inactive)
[12]
  GI50: > 100 µM (inactive)
[13]
  GI50: 44.3 µM (inactive)
[14]
  GI50: > 100 µM (inactive)
[15]
  GI50: > 100 µM (inactive)
[16]
  GI50: > 100 µM (inactive)
[17]
  GI50: > 100 µM (inactive)
[18]
  GI50: > 100 µM (inactive)
[19]
  GI50: > 100 µM (inactive)
[20]
  GI50: > 100 µM (inactive)
[21]
  GI50: > 100 µM (inactive)
[22]
  GI50: > 100 µM (inactive)
[23]
  GI50: > 100 µM (inactive)
[24]
  GI50: > 100 µM (inactive)
[25]
  GI50: > 100 µM (inactive)
[26]
  GI50: > 100 µM (inactive)
[27]
  GI50: > 100 µM (inactive)
[28]
  GI50: > 100 µM (inactive)
[29]
  GI50: > 100 µM (inactive)
[30]
  GI50: > 100 µM (inactive)
[31]
  GI50: > 100 µM (inactive)
[32]
  GI50: > 100 µM (inactive)
[33]
  GI50: > 100 µM (inactive)
[34]
  GI50: > 100 µM (inactive)
[35]
  GI50: > 100 µM (inactive)
[36]
  GI50: > 100 µM (inactive)
[37]
  GI50: > 100 µM (inactive)
[38]
  GI50: > 100 µM (inactive)
[39]
  GI50: > 100 µM (inactive)
[40]
  GI50: > 100 µM (inactive)
[41]
  GI50: > 100 µM (inactive)
[42]
  GI50: > 100 µM (inactive)
[43]
  GI50: > 100 µM (inactive)
[44]
  GI50: > 100 µM (inactive)
[45]
  GI50: > 100 µM (inactive)
[46]
  GI50: > 100 µM (inactive)
[47]
  GI50: > 100 µM
[48]
  GI50: > 100 µM (inactive)
[49]
  GI50: > 100 µM (inactive)
[50]
  GI50: > 100 µM (inactive)
[51]
  GI50: > 100 µM (inactive)
[52]
  GI50: > 100 µM (inactive)
[53]
  GI50: > 100 µM (inactive)
[54]
  GI50: > 100 µM (inactive)
[55]
  GI50: 85.7 µM (inactive)
[56]
  GI50: > 100 µM (inactive)

## CC(NC(=O)c1ccc(NP(=O)(OCc2ccc([N+](=O)[O-])o2)N(C)CCCCCl)cc1)c1ccc(OCC2CCCCC2)c(C(N)=O)c1 (stereo unspecified)
[1]
  GI50: 4.56 µM (inactive)
[2]
  GI50: 16.3 µM (inactive)
[3]
  GI50: 28.4 µM (inactive)
[4]
  GI50: 26.4 µM (inactive)
[5]
  GI50: 11.4 µM (inactive)
[6]
  GI50: 18.3 µM (inactive)
[7]
  GI50: 14.9 µM (inactive)
[8]
  GI50: 13.4 µM (inactive)
[9]
  GI50: 11.6 µM (inactive)
[10]
  GI50: 16.1 µM (inactive)
[11]
  GI50: 17.5 µM (inactive)
[12]
  GI50: 29.3 µM (inactive)
[13]
  GI50: 11 µM (inactive)
[14]
  GI50: 9.71 µM (inactive)
[15]
  GI50: 43.4 µM (inactive)
[16]
  GI50: 61.8 µM (inactive)
[17]
  GI50: 21.6 µM (inactive)
[18]
  GI50: 16.4 µM (inactive)
[19]
  GI50: 10.9 µM (inactive)
[20]
  GI50: 12.6 µM (inactive)
[21]
  GI50: 12 µM (inactive)
[22]
  GI50: 4.86 µM (inactive)
[23]
  GI50: 23.4 µM (inactive)
[24]
  GI50: 16.9 µM (inactive)
[25]
  GI50: 5.37 µM (inactive)
[26]
  GI50: 16.7 µM (inactive)
[27]
  GI50: 16 µM (inactive)
[29]
  GI50: 0.904 µM (active)
[30]
  GI50: 28.2 µM (inactive)
[31]
  GI50: 12.2 µM (inactive)
[32]
  GI50: 10.5 µM (inactive)
[33]
  GI50: 17 µM (inactive)
[34]
  GI50: 16.5 µM (inactive)
[35]
  GI50: 17.7 µM (inactive)
[36]
  GI50: 10.9 µM (inactive)
[37]
  GI50: 3.15 µM (inactive)
[38]
  GI50: 31.6 µM (inactive)
[39]
  GI50: 19.5 µM (inactive)
[57]
  GI50: 19.4 µM (inactive)
[42]
  GI50: 18.9 µM (inactive)
[43]
  GI50: 16.2 µM (inactive)
[44]
  GI50: 16.9 µM (inactive)
[45]
  GI50: 15.5 µM (inactive)
[46]
  GI50: 25.4 µM (inactive)
[47]
  GI50: 46 µM
[48]
  GI50: 29 µM (inactive)
[49]
  GI50: 13.3 µM (inactive)
[58]
  GI50: 13.7 µM (inactive)
[50]
  GI50: 10.6 µM (inactive)
[51]
  GI50: 17.3 µM (inactive)
[52]
  GI50: 13.8 µM (inactive)
[53]
  GI50: 15.9 µM (inactive)
[54]
  GI50: 15.5 µM (inactive)
[55]
  GI50: 2.95 µM (inactive)
[56]
  GI50: 17.1 µM (inactive)
